Experimental data as given in patent US20230026259A1, “CA2 COMPOSITIONS AND METHODS FOR TUNABLE REGULATION” (Obsidian Therapeutics, Inc., priority 2019, published 2023).

System: NIH3T3 cells
Assay: Destabilization mutant screening of human CA2 linked to GFP, ligand response by FACS (Valdecoxib, Celecoxib, Acetazolamide)
Format: cell-based
Protocol: To identify destabilizing mutations of human CA2 that are stabilized upon ligand binding to CA2, two rounds of mutant screening were performed, using a lentivirus CA2 mutant library provided by Genscript (China). These methods were used to generate a library of mutant polypeptides using mutagenesis primers and error prone PCR. Lentiviral vectors expressing the template, wild-type human CA2 operably linked to GFP(OT-001986) was also provided by Genscript along with the CA2 mutant library. The library was packaged into lentivirus, transduced into NIH3T3 cells at a multiplicity of infection (MOI) of approximately 0.3 and select stable cell pools were derived by selecting with selection marker puromycin.
To identify cell pools containing destabilizing mutants of CA2 that are stabilizing when CA2 is bound to its corresponding ligand, cells were sorted using FACS. In the initial round, the bottom 15% of population that was GFP negative in the absence of ligand was selected. Cells were expanded and then treated with 10 μM Celecoxib for 24 hours and harvested for cell sorting. The top 11% GFP positive cells which were also responsive to ligand treatment compared to untreated were collected. Celecoxib was removed from the cultures and replaced with DMSO. […] Genomic DNA was isolated and amplified CA2 mutants were reintroduced to the lentiviral vectors where CA2 was operably linked to GFP. The constructs were transduced into NIH3T3 cells with lentivirus vectors for each clone. The cells were treated with 10 μM Valdecoxib or 10 μM Celecoxib for 24 hours and analyzed by FACS. […] In Table 25, the Construct ID (OT-XXXXXX) refers to the construct which includes the referenced CA2 mutant and the Library ID (LibCXXXXXX) refers to the CA2 mutant itself.
The response of NIH3T3 cells to varying doses of Valdecoxib or Celecoxib for 24 hours was measured and analyzed by FACS.
Clones treated with different ligands were compared to examine the behavior of each mutant with the ligands.

[1] = NIH3T3, 10 μM Celecoxib vs DMSO
[2] = NIH3T3, 10 μM Valdecoxib vs DMSO

Substance	Median PE (NIH3T3, 10 μM Celecoxib)	SR (stabilization ratio) [1]	Median PE (NIH3T3, 10 μM Valdecoxib)	SR (stabilization ratio) [2]	MFI, comparative analysis, normalized to parental day 1 (NIH3T3, Celecoxib μM (concentration not given))	MFI, comparative analysis (NIH3T3, DMSO)	Median PE (NIH3T3, DMSO)	SR (stabilization ratio) (NIH3T3, DMSO (reference))	MFI, comparative analysis, normalized to parental day 1 (NIH3T3, Valdecoxib μM (concentration not given))
CA2 (aa 2-260 of WT, G12R) [LibC000211]	20800	1.6	19800	1.52	16550.54	10344.09	13000	1	15754.84
CA2 (aa 2-260 of WT, H17D, P30S, G81V, K132R, S151I, A152D, A173G, W191*) [LibC000191]	173	1.08	177	1.11			160	1	
CA2 (aa 2-260 of WT, L47R) [LibC000220]	384	1.2	408	1.31			311	1	
CA2 (aa 2-260 of WT, N61R, K80M, K212N, N231T, L250P) [LibC000198]	535	1.95	552	2			275	1	
CA2 (aa 2-260 of WT, S73F) [LibC000212]	30700	1.02	30700	1.02			30100	1	
CA2 (aa 2-260 of WT, T35I, Y114H, P154L, D161V, P200A, F225L, E233D, W244*) [LibC000188]	225	1.09	228	1.11			206	1	
